According to US5462933A, “Modified bile acid conjugates, and their use as pharmaceuticals” (Hoechst Aktiengesellschaft, priority 1989, dated 1995):

Legend:
67,000 (albumin) = molecular target: T1, 67,000 (albumin) (Rattus norvegicus, UniProt P02770); assay: Photoaffinity labeling of bile acid-binding proteins in hepatocytes in the presence of competitor; conditions: decrease in labeling relative to control
T1 construct: freshly isolated hepatocytes from rat liver; endogenous in cells; host or cells: freshly isolated rat hepatocytes
Description: (§1) The molecules of these physiologically relevant binding proteins for bile acids were identified and characterized by the method of photoaffinity labeling. The principle of this method consists in binding a photoreactive radioactively labeled bile acid derivative to the physiological binding protein analogously to the natural bile acids. By irradiation with UV light, highly reactive chemical intermediates such as carbenes, nitrenes or radicals are generated in this derivative which, owing to their high reactivity, immediately react with the binding proteins by addition to double bonds or insertion in single bonds and bind covalently to these. By means of this covalent linkage of the radioactive bile acid derivative with the binding protein, the binding proteins are then also radioactively labeled and can be identified by a separation of the various proteins of a liver cell, for example by electrophoresis, and their molecular weight determined.
If such a photoaffinity labeling is carried out in the presence of a substance X' which also binds to the bile acid-binding proteins, then X' will compete with the radioactive bile acid derivative for binding to the bile acid-binding proteins; the radioactive labeling of the corresponding binding proteins will thus be lower in the presence of X'. […]

[1] = test system: 33,000 (binding protein in mitochondria); assay: as above; parameters: species or system rat
Description: as §1
(§2) If such a photoaffinity labeling is carried out in the presence of a substance X' which also binds to the bile acid-binding proteins, then X' will compete with the radioactive bile acid derivative for binding to the bile acid-binding proteins; the radioactive labeling of the corresponding binding proteins will thus be lower in the presence of X'.
(§3) 3.6×10^6 freshly isolated hepatocytes from rat liver (about 3 mg of protein) in 1.5 ml of buffer I (118 mM NaCl, 4.74 mM KCl, 0.59 mM KH2 PO4, 0.59 mM Na2 HPO4 ×2 H2 O, 1.185 mM MgCl2 ×6 H2 O, 24.87 mM NaHCO3, 1.25 mM CaCl2, 5.5 mM D-glucose, pH 7.35, buffer aerated with carbogen (95% O2 /5% CO2) for 1 h) were incubated at 37° C. […] in the dark with 1.25 μM (25 μCi) of (7,7-azo-3α-12α-dihydroxy-5β[3-^3 H]cholan-24-oyl)-2-aminoethanesulfonic acid in the absence or in the presence of 250 μM "Example 3" and then irradiated at […] with 16 RPR 3500 Å-lamps for 5 min in a Rayonet RPR-100 photoreactor. The cell suspension was then diluted with 10 ml of ice-cold buffer I and the cells sedimented by centrifuging at 1000×g for 3 minutes. The cells were resuspended again in 10 ml of buffer I and again sedimented by centrifugation. The precipitate was taken up in 600 μl of tris/HCl buffer (pH 6.8)/2% sodium dodecylsulfate (SDS)/5% 2-mercaptoethanol/10% glycerol/0.001% Bromophenol blue, heated to 90° C. for 5 min and centrifuged at 40,000×g for 20 min. The clear supernatant containing the solubilized proteins was used subsequently. In each case 100 μl (500 μg of protein) were applied to discontinuous SDS slab gels (200×170×2.7 mm, total acrylamide concentration 12%) and the proteins were separated by electrophoresis at a voltage of 50 V. After the electrophoresis, the gels were fixed in 12.5% strength trichloroacetic acid solution and stained using 0.08% Serva blue R 250 solution in 25% ethanol/8% acetic acid/67% water. After destaining, the gels were equilibrated in 1M sodium salicylate solution in 70% methanol for 20 min and then dried. The distribution of the radioactively labeled proteins was determined by the fluorographic method by placing the dried gels on Kodak-X-Omat AR X-ray films and exposing at -80° C. for 14 d. The blackened films were measured by densitometry. The decrease in the labeling of the various bile acid-binding proteins owing to the presence of "Example 3" during the photoaffinity labeling is given in % relative to the control.

[2] = test system: 36,000 (transport protein in the cytoplasm); assay: as above; parameters: species or system rat
Description: as §1, §2, §3

[3] = test system: 43,000 (cytoskeletal protein); assay: as above; parameters: species or system rat
Description: as §1, §2, §3

[4] = test system: 48,000 (membrane transport protein); assay: as above; parameters: species or system rat
Description: as §1, §2, §3

[5] = test system: 54,000 (membrane transport protein); assay: as above; parameters: species or system rat
Description: as §1, §2, §3

liver cell proteins = assay: Alkylation of liver cell proteins in freshly isolated hepatocytes; format: cell-based, rat
Experimental: Freshly isolated hepatocytes (2×10^6) in 2 ml of buffer I were incubated at 37° C. with 30 μCi of "Example 5". After 10, 30, 40 and 60 min, in each case 500 μl of cell suspension (500 μg of protein) were removed and diluted with 10 ml of ice-cold buffer I. After centrifuging at 1000×g for 3 minutes, the precipitate was resuspended in 10 ml of buffer I and the suspension was centrifuged again. The cell precipitates were each dissolved in 100 μl of 62.5 mM tris/HCl buffer (pH 6.8)/2% SDS/5% 2-mercaptoethanol/10% glycerol/0.001% Bromophenol blue, centrifuged at 48,000×g for 30 min and the clear supernatants were applied to discontinuous SDS slab gels (200×170×2.7 mm). After the electrophoretic separation, the gels were fixed and stained. To determine the distribution of the radioactivity, the individual gel tracks were divided into 2 mm sections, the proteins were digested with Biolute S by incubation with 0.5 ml, and after addition of 5 ml of Quickszint 501 scintillator, the samples were measured in a liquid scintillation counter.

[6] = test system: freshly isolated hepatocytes; assay: Metabolism by freshly isolated hepatocytes; format: in vitro ADME, rat; parameters: Distribution of the radioactivity: Metabolite 1 Rf = 0.32 / Distribution of the radioactivity: Metabolite 3 Rf = 0.21 (not identified): concentration or dose not given beside the values
Experimental: Freshly isolated hepatocytes (1.8×10^6) in 750 μl of buffer I were incubated at 37° C. with 5.5 μCi of "Example 5". After 10, 20, 30, 40 and 60 min, 100 μl of the cell suspension were removed in each case, diluted with 10 ml of ice-cold buffer I and centrifuged at 1000×g for 5 min. The cell precipitate was treated twice with 100 μl of chloroform/methanol solution (1/1, v/v) each time to extract the bile acid. The organic extracts were evaporated in a stream of N2, and the residues were each taken up in 20 μl of dioxane and applied to HPTLC thin layer plates. After developing the chromatogram using n-butanol/acetic acid/water (9:1:2, v/v/v) as the eluent, the plate was dried, sprayed with 1M sodium salicylate solution in methanol and, after drying, placed on a Kodak-X-Omat AR X-ray film. After exposure at -80° C. for 1 week, the film was developed and the distribution of the radioactivity was determined by densitometry. The distribution of the radioactivity in the individual metabolites is given in %.

T1 sequence (P02770 25-608): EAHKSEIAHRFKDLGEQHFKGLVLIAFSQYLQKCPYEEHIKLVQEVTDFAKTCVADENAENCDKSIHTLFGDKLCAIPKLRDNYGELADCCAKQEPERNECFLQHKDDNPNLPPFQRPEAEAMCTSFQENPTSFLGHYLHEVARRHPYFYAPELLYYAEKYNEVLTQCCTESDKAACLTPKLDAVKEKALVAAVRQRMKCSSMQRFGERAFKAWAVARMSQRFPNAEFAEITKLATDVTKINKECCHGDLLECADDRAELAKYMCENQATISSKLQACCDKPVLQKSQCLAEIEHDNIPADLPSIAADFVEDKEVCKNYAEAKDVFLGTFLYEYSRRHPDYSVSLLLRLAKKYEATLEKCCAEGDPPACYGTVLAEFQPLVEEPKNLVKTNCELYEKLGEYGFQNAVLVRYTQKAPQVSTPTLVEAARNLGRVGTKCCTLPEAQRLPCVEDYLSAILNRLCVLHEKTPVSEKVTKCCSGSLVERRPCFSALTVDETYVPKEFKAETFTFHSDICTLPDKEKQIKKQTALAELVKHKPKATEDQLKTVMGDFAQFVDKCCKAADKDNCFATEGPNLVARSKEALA

Question: Which results are given for `C[C@H](CCC(=O)NCCS(=O)(=O)O)[C@H]1CC[C@H]2[C@@H]3CC[C@@H]4C[C@H](OC(=O)CCCc5ccc(N(CCCl)CCCl)cc5)CC[C@]4(C)[C@H]3CC(=O)[C@]12C` [Example 3]?
Answer: % Inhibition of bile acid-binding proteins by 250 μM "Example 3" (67,000 (albumin)): 90.5%; % Inhibition of bile acid-binding proteins by 250 μM "Example 3" [1]: 93.2%; % Inhibition of bile acid-binding proteins by 250 μM "Example 3" [2]: 98.1%; % Inhibition of bile acid-binding proteins by 250 μM "Example 3" [3]: 88.1%; % Inhibition of bile acid-binding proteins by 250 μM "Example 3" [4]: 88.8%; % Inhibition of bile acid-binding proteins by 250 μM "Example 3" [5]: 89.6%

Question: Which results are given for `[3H]C1(O)C[C@H]2[C@@H](CC[C@@H]3C[C@H](OC(=O)CCCc4ccc(N(CCCl)CCCl)cc4)CC[C@@]32C)[C@@H]2CC[C@H]([C@H](C)CCC(=O)NCCS(=O)(=O)O)[C@]21C` (stereo partly shown) [Example 5]?
Answer: Radioactive labeling of liver cell proteins (liver cell proteins; in membranes, cytoplasm and cell organelles, result in words): leads to a radioactive labeling of liver cell proteins; Radioactivity in labeled liver proteins (liver cell proteins; incubation 0 min): < 30 cpm; Radioactivity in labeled liver proteins (liver cell proteins; incubation 10 min, 48 kDa): 408 cpm; Radioactivity in labeled liver proteins (liver cell proteins; incubation 10 min, 67 kDa): 102 cpm; Radioactivity in labeled liver proteins (liver cell proteins; incubation 30 min, 28 kDa): 2190 cpm; Radioactivity in labeled liver proteins (liver cell proteins; incubation 30 min, 33 kDa): 1116 cpm; Radioactivity in labeled liver proteins (liver cell proteins; incubation 30 min, 42 kDa): 1711 cpm; Radioactivity in labeled liver proteins (liver cell proteins; incubation 30 min, 48 kDa): 1375 cpm; Radioactivity in labeled liver proteins (liver cell proteins; incubation 30 min, 54 kDa): 1811 cpm; Radioactivity in labeled liver proteins (liver cell proteins; incubation 30 min, 122 kDa): 1064 cpm; Radioactivity in labeled liver proteins (liver cell proteins; incubation 40 min, 28 kDa): 2682 cpm; Radioactivity in labeled liver proteins (liver cell proteins; incubation 40 min, 33 kDa): 1474 cpm; Radioactivity in labeled liver proteins (liver cell proteins; incubation 40 min, 42 kDa): 2650 cpm; Radioactivity in labeled liver proteins (liver cell proteins; incubation 40 min, 48 kDa): 2420 cpm; Radioactivity in labeled liver proteins (liver cell proteins; incubation 40 min, 54 kDa): 2385 cpm; Radioactivity in labeled liver proteins (liver cell proteins; incubation 40 min, 122 kDa): 1549 cpm; Radioactivity in labeled liver proteins (liver cell proteins; incubation 60 min, 28 kDa): 2163 cpm; Radioactivity in labeled liver proteins (liver cell proteins; incubation 60 min, 42 kDa): 1725 cpm; Radioactivity in labeled liver proteins (liver cell proteins; incubation 60 min, 48 kDa): 2074 cpm; Radioactivity in labeled liver proteins (liver cell proteins; incubation 60 min, 54 kDa): 1949 cpm; Radioactivity in labeled liver proteins (liver cell proteins; incubation 60 min, 122 kDa): 997 cpm; Distribution of the radioactivity: "Example 5" Rf = 0.49 ([6]; incubation 10 min): 31.34%; Distribution of the radioactivity: Metabolite 1 Rf = 0.32 ([6]; incubation 10 min): 33.79%; Distribution of the radioactivity: Metabolite 2 Rf = 0.36 ([6]; incubation 10 min): 38.03%; Distribution of the radioactivity: Metabolite 3 Rf = 0.21 (not identified) ([6]; incubation 10 min): 5.62%; Distribution of the radioactivity: "Example 5" Rf = 0.49 ([6]; incubation 20 min): 26.51%; Distribution of the radioactivity: Metabolite 1 Rf = 0.32 ([6]; incubation 20 min): 29.49%; Distribution of the radioactivity: Metabolite 2 Rf = 0.36 ([6]; incubation 20 min): 32.25%; Distribution of the radioactivity: Metabolite 3 Rf = 0.21 (not identified) ([6]; incubation 20 min): 11.74%; Distribution of the radioactivity: "Example 5" Rf = 0.49 ([6]; incubation 30 min): 23.76%; Distribution of the radioactivity: Metabolite 1 Rf = 0.32 ([6]; incubation 30 min): 29.88%; Distribution of the radioactivity: Metabolite 2 Rf = 0.36 ([6]; incubation 30 min): 34.18%; Distribution of the radioactivity: Metabolite 3 Rf = 0.21 (not identified) ([6]; incubation 30 min): 12.16%; Distribution of the radioactivity: "Example 5" Rf = 0.49 ([6]; incubation 40 min): 13.78%; Distribution of the radioactivity: Metabolite 1 Rf = 0.32 ([6]; incubation 40 min): 33.52%; Distribution of the radioactivity: Metabolite 2 Rf = 0.36 ([6]; incubation 40 min): 40.93%; Distribution of the radioactivity: Metabolite 3 Rf = 0.21 (not identified) ([6]; incubation 40 min): 11.75%; Distribution of the radioactivity: "Example 5" Rf = 0.49 ([6]; incubation 60 min): 11.00%; Distribution of the radioactivity: Metabolite 1 Rf = 0.32 ([6]; incubation 60 min): 33.7%; Distribution of the radioactivity: Metabolite 2 Rf = 0.36 ([6]; incubation 60 min): 45.7%; Distribution of the radioactivity: Metabolite 3 Rf = 0.21 (not identified) ([6]; incubation 60 min): 10.3%; Absorption into the cell interior by the liver cells ([6]; result in words): is absorbed into the cell interior by the liver cells; Hydrolytic cleavage into free chlorambucil and bile acid ([6]; result in words): rapidly cleaved hydrolytically
